Experiments:
Saccharomyces cerevisiae = test: antifungal activity test against Saccharomyces cerevisiae; conditions: tested against Saccharomyces cerevisiae
Leishmania = conditions: cited from earlier work
[1] = tested on: human immunodeficiency virus (HIV); conditions: cited from earlier work; for inhibition of HIV infection / HIV-1 replication: cultured cells
BSE or scrapie agents = conditions: cited from earlier work; for survival times: hamsters and mice infected intracerebrally with BSE or scrapie agents; for delaying the onset of symptoms associated with scrapie and BSE: transmissible spongiform encephalopathies scrapie and BSE
[2] = amphotericin B: intravenous or intrathecal routes; cited from earlier work
[3] = derivative of amphotericin B; cited from earlier work
[4] = compared with amphotericin B; cited from earlier work

SMILES | antifungal activity (Saccharomyces cerevisiae) | activity against Leishmania (Leishmania) | inhibition of HIV infection / HIV-1 replication ([1]; in vitro) | survival times (BSE or scrapie agents) | delaying the onset of symptoms associated with scrapie and BSE (BSE or scrapie agents) | toxicity [2] | activity retained [3] | T-cell activation via the CD3/TcR ([1]; HIV CD4+ cells) | cytotoxicity ([1]; in vitro, all cell types) | water solubility [4]
C[C@@H]1[C@H](O)[C@@H](C)/C=C/C=C/C=C/C=C/C=C/C=C/C=C/[C@H](O[C@@H]2O[C@@H](C)[C@@H](O)[C@H](N)[C@@H]2O)C[C@@H]2O[C@](O)(C[C@@H](O)C[C@@H](O)CCC[C@@H](O)C[C@@H](O)CC(=O)O[C@H]1C)C[C@H](O)[C@H]2C(=O)O [8-deoxyamphotericin B] | as great as that of amphotericin B |  |  |  |  |  |  |  |  | 
C[C@@H]1[C@H](O)[C@@H](C)/C=C/C=C/C=C/C=C/C=C/C=C/C=C/[C@H](O[C@@H]2O[C@H](C)[C@@H](O)[C@H](N)[C@@H]2O)C[C@@H]2O[C@](O)(C[C@@H](O)C[C@@H](O)[C@H](O)CC[C@@H](O)C[C@@H](O)CC(=O)O[C@H]1C)C[C@H](O)[C@H]2C(=O)O [Amphotericin B] |  | active against Leishmania | inhibits infection of cultured cells | prolonged the survival times | showed activity in delaying the onset of symptoms | consistently associated with a number of toxic side-effects |  |  |  | 
CNC[C@H](O)[C@@H](O)[C@H](O)[C@H](O)CO.C[C@@H]1[C@H](O)[C@@H](C)/C=C/C=C/C=C/C=C/C=C/C=C/C=C/[C@H](O[C@@H]2O[C@H](C)[C@@H](O)[C@H](NCC(=O)[C@@H](O)[C@@H]3OC(c4ccccc4)OC[C@H]3O)[C@@H]2O)C[C@@H]2O[C@](O)(C[C@@H](O)C[C@@H](O)[C@H](O)CC[C@@H](O)C[C@@H](O)CC(=O)O[C@H]1C)C[C@H](O)[C@H]2C(=O)O (stereo partly shown) [MS-8209] |  |  | inhibit HIV-1 replication in vitro in all cell types | prolonged the survival times | showed activity in delaying the onset of symptoms |  | retains activity | restore T-cell activation | without cytotoxicity | more water soluble

— patent US20060073574A1 (priority 2001, published 2006)
